# Measured values as given in US10328053B2 (Gilead Sciences, Inc., priority 2016, dated 2019).
# Test: Hepatic Stability Assay (in vitro half-life method)
# Format: in vitro ADME
# Set-up: dose or concentration left out as unconfirmed
# Details: pooled cryopreserved hepatocytes, 37° C., 1×10^6 cells/mL, 0-6 hours, LC-MS/MS, 39.5 hours is the maximum detectable half life, read-out: t½ (converted)
# Procedure: Hepatic Stability Assay The metabolic stability of certain compounds disclosed herein was assessed in vitro in pooled cryopreserved hepatocytes using the in vitro half-life method. Incubations were at 37° C. and final concentrations in the incubations were 1×10^6 cells/mL and […] test concentration of the compound. Aliquots were sequentially removed after 0, 1, 3 and 6 hours and analyzed by LC-MS/MS. In vitro half-life was determined by measuring the rate of disappearance of the compound and then scaled to predicted hepatic clearance using the well-stirred model. […] As such, compounds having a value of 39.5 may have a half live that exceeds 39.5 hours.
row,SMILES,half-life [h]
1,"Cc1c(C(=O)C(=O)NC2(c3c[nH]nn3)CC2)c2n(c1C(=O)Nc1cc(F)c(F)c(F)c1)CCC2 [Example 26, 7-(2-((1-(1H-1,2,3-triazol-4-yl)cyclopropyl)amino)-2-oxoacetyl)-6-methyl-N-(3,4,5-trifluorophenyl)-2,3-dihydro-1H-pyrrolizine-5-carboxamide]",8.2
2,"Cc1c(C(=O)C(=O)NC2(c3c[nH]nn3)CC2)c2n(c1C(=O)Nc1cccc(F)c1)CCC2 [Example 69, 7-(2-((1-(1H-1,2,3-triazol-4-yl)cyclopropyl)amino)-2-oxoacetyl)-N-(3-fluorophenyl)-6-methyl-2,3-dihydro-1H-pyrrolizine-5-carboxamide]",17
3,"Cc1c(C(=O)C(=O)NC2(C(=O)N(C)C)CC(F)(F)C2)c2n(c1C(=O)Nc1ccc(F)c(Cl)c1)CCC2 [Example 124, N-(3-chloro-4-fluorophenyl)-7-(2-((1-(dimethylcarbamoyl)-3,3-difluorocyclobutyl)amino)-2-oxoacetyl)-6-methyl-2,3-dihydro-1H-pyrrolizine-5-carboxamide]",1
4,"Cc1c(C(=O)C(=O)NC2(C(F)(F)F)COC2)c2n(c1C(=O)Nc1ccnc(C(F)F)c1)[C@@H]1C[C@@H]1C2 [Example 119, (1aR,6aR)—N-(2-(difluoromethyl)pyridin-4-yl)-4-methyl-5-(2-oxo-2-((3-(trifluoromethyl)oxetan-3-yl)amino)acetyl)-1,1a,6,6a-tetrahydrocyclopropa[b]pyrrolizine-3-carboxamide]",11
5,"CNC(=O)C1(NC(=O)C(=O)c2c(C)c(C(=O)Nc3ccc(F)c(Cl)c3F)n3c2CCC3)CC(F)(F)C1 [Example 127, N-(3-chloro-2,4-difluorophenyl)-7-(2-((3,3-difluoro-1-(methylcarbamoyl)cyclobutyl)amino)-2-oxoacetyl)-6-methyl-2,3-dihydro-1H-pyrrolizine-5-carboxamide]",15.2
6,"Cc1c(C(=O)C(=O)NC2(c3nncs3)CC2)c2n(c1C(=O)Nc1ccc(F)c(C#N)c1)[C@@H]1C[C@@H]1C2 [Example 58, (1aR,6aR)-5-(2-((1-(1,3,4-thiadiazol-2-yl)cyclopropyl)amino)-2-oxoacetyl)-N-(3-cyano-4-fluorophenyl)-4-methyl-1,1a,6,6a-tetrahydrocyclopropa[b]pyrrolizine-3-carboxamide]",38.5
7,"Cc1c(C(=O)C(=O)N[C@H](C)C(F)(F)F)c2n(c1C(=O)Nc1ccc(F)c(Cl)c1)C(C)CC2 (mixture of isomers) [Example 20, N-(3-chloro-4-fluorophenyl)-3,6-dimethyl-7-(2-oxo-2-(((R)-1,1,1-trifluoropropan-2-yl)amino)acetyl)-2,3-dihydro-1H-pyrrolizine-5-carboxamide]",14.3
8,"Cc1c(C(=O)C(=O)NC2(c3nncs3)CC2)c2n(c1C(=O)Nc1ccnc(C(F)F)c1)[C@@H]1C[C@@H]1C2 [Example 62, (1aR,6aR)-5-(2-((1-(1,3,4-thiadiazol-2-yl)cyclopropyl)amino)-2-oxoacetyl)-N-(2-(difluoromethyl)pyridin-4-yl)-4-methyl-1,1a,6,6a-tetrahydrocyclopropa[b]pyrrolizine-3-carboxamide]",5.3
9,"Cc1c(C(=O)C(=O)NC2(c3c[nH]nn3)CC2)c2n(c1C(=O)Nc1ccc(F)c(F)c1)CCC2 [Example 43, 7-(2-((1-(1H-1,2,3-triazol-4-yl)cyclopropyl)amino)-2-oxoacetyl)-N-(3,4-difluorophenyl)-6-methyl-2,3-dihydro-1H-pyrrolizine-5-carboxamide]",16
10,"Cc1c(C(=O)C(=O)N[C@](C)(CO)C(F)(F)F)c2n(c1C(=O)Nc1ccc(F)c(F)c1)CCC2 [Example 133, (R)—N-(3,4-difluorophenyl)-6-methyl-7-(2-oxo-2-((1,1,1-trifluoro-3-hydroxy-2-methylpropan-2-yl)amino)acetyl)-2,3-dihydro-1H-pyrrolizine-5-carboxamide]",12.5
11,"Cc1c(C(=O)C(=O)N[C@]2(C)C[S@+]([O-])C2)c2n(c1C(=O)Nc1ccc(F)c(F)c1)CCC2 [Example 152, N-(3,4-difluorophenyl)-6-methyl-7-(2-(((1s,3s)-3-methyl-1-oxidothietan-3-yl)amino)-2-oxoacetyl)-2,3-dihydro-1H-pyrrolizine-5-carboxamide]",10.5
12,"Cc1c(C(=O)C(=O)NC2(C(N)=O)CC(F)(F)C2)c2n(c1C(=O)Nc1cc(F)c(F)c(F)c1)CCC2 [Example 140, 7-(2-((1-carbamoyl-3,3-difluorocyclobutyl)amino)-2-oxoacetyl)-6-methyl-N-(3,4,5-trifluorophenyl)-2,3-dihydro-1H-pyrrolizine-5-carboxamide]",13.5
13,"Cc1c(C(=O)C(=O)NC2(C#N)CC(F)(F)C2)c2n(c1C(=O)Nc1ccc(F)c(F)c1)CCC2 [Example 131, 7-(2-((1-cyano-3,3-difluorocyclobutyl)amino)-2-oxoacetyl)-N-(3,4-difluorophenyl)-6-methyl-2,3-dihydro-1H-pyrrolizine-5-carboxamide]",7.6
14,"Cc1c(C(=O)C(=O)N[C@H](C)C(F)(F)F)c2n(c1C(=O)Nc1ccc(F)c(Cl)c1)C(C)CC2 (single isomer, unassigned) [Example 24]",5
15,"Cc1c(C(=O)C(=O)NC2(C#N)CC(F)(F)C2)c2n(c1C(=O)Nc1ccc(F)c(Cl)c1)CCC2 [Example 130, N-(3-chloro-4-fluorophenyl)-7-(2-((1-cyano-3,3-difluorocyclobutyl)amino)-2-oxoacetyl)-6-methyl-2,3-dihydro-1H-pyrrolizine-5-carboxamide]",6.6
16,"Cc1c(C(=O)C(=O)NC2(C(F)(F)F)COC2)c2n(c1C(=O)Nc1ccnc(C(F)F)c1F)C[C@H](F)C2 [Example 150, (R)—N-(2-(difluoromethyl)-3-fluoropyridin-4-yl)-2-fluoro-6-methyl-7-(2-oxo-2-((3-(trifluoromethyl)oxetan-3-yl)amino)acetyl)-2,3-dihydro-1H-pyrrolizine-5-carboxamide]",16.6
17,"Cc1c(C(=O)C(=O)NC2(C(N)=O)CC(F)(F)C2)c2n(c1C(=O)Nc1ccc(F)c(Cl)c1)CCC2 [Example 120, 7-(2-((1-carbamoyl-3,3-difluorocyclobutyl)amino)-2-oxoacetyl)-N-(3-chloro-4-fluorophenyl)-6-methyl-2,3-dihydro-1H-pyrrolizine-5-carboxamide]",13.5

# Further lines, results first:
row,half-life [h],SMILES
1,5,"Cc1c(C(=O)C(=O)N[C@]2(C)C[S@@+]([O-])C2)c2n(c1C(=O)Nc1ccc(F)c(F)c1)CCC2 [Example 151, N-(3,4-difluorophenyl)-6-methyl-7-(2-(((1r,3r)-3-methyl-1-oxidothietan-3-yl)amino)-2-oxoacetyl)-2,3-dihydro-1H-pyrrolizine-5-carboxamide]"
2,8,"Cc1c(C(=O)C(=O)NC2(c3c[nH]nn3)CC2)c2n(c1C(=O)Nc1ccc(F)c(F)c1)[C@@H]1C[C@@H]1C2 [Example 81, (1aR,6aR)-5-(2-((1-(1H-1,2,3-triazol-4-yl)cyclopropyl)amino)-2-oxoacetyl)-N-(3,4-difluorophenyl)-4-methyl-1,1a,6,6a-tetrahydrocyclopropa[b]pyrrolizine-3-carboxamide]"
3,7.3,"CNC(=O)C1(NC(=O)C(=O)c2c(C)c(C(=O)Nc3ccc(F)c(Cl)c3)n3c2C[C@@H]2C[C@@H]23)CC(F)(F)C1 [Example 4, (1aS,6aS)—N-(3-chloro-4-fluorophenyl)-5-(2-((3,3-difluoro-1 (methylcarbamoyl)cyclobutyl)amino)-2-oxoacetyl)-4-methyl-1,1a,6,6a-tetrahydrocyclopropa[b]pyrrolizine-3-carboxamide]"
4,7,"Cc1c(C(=O)C(=O)NC2(c3c[nH]nn3)CC2)c2n(c1C(=O)Nc1cc(F)cc(Cl)c1)CCC2 [Example 101, 7-(2-((1-(1H-1,2,3-triazol-4-yl)cyclopropyl)amino)-2-oxoacetyl)-N-(3-chloro-5-fluorophenyl)-6-methyl-2,3-dihydro-1H-pyrrolizine-5-carboxamide]"
5,5.4,"Cc1c(C(=O)C(=O)NC2(c3nncs3)CC2)c2n(c1C(=O)Nc1ccc(F)c(F)c1)[C@@H]1C[C@@H]1C2 [Example 61, (1aR,6aR)-5-(2-((1-(1,3,4-thiadiazol-2-yl)cyclopropyl)amino)-2-oxoacetyl)-N-(3,4-difluorophenyl)-4-methyl-1,1a,6,6a-tetrahydrocyclopropa[b]pyrrolizine-3-carboxamide]"
6,19.5,"Cc1c(C(=O)C(=O)NC2(c3c[nH]nn3)CC2)c2n(c1C(=O)Nc1cc(F)cc(F)c1)CCC2 [Example 76, 7-(2-((1-(1H-1,2,3-triazol-4-yl)cyclopropyl)amino)-2-oxoacetyl)-N-(3,5-difluorophenyl)-6-methyl-2,3-dihydro-1H-pyrrolizine-5-carboxamide]"
7,14.9,"Cc1c(C(=O)C(=O)NC2(c3c[nH]nn3)CC2)c2n(c1C(=O)Nc1ccc(F)c(C#N)c1)[C@@H]1C[C@@H]1C2 [Example 79, (1aR,6aR)-5-(2-((1-(1H-1,2,3-triazol-4-yl)cyclopropyl)amino)-2-oxoacetyl)-N-(3-cyano-4-fluorophenyl)-4-methyl-1,1a,6,6a-tetrahydrocyclopropa[b]pyrrolizine-3-carboxamide]"
8,22.6,"CNC(=O)C1(NC(=O)C(=O)c2c(C)c(C(=O)Nc3ccc(F)c(F)c3)n3c2C[C@H]2C[C@H]23)CC(F)(F)C1 [Example 96, (1aR,6aR)-5-(2-((3,3-difluoro-1-(methylcarbamoyl)cyclobutyl)amino)-2-oxoacetyl)-N-(3,4-difluorophenyl)-4-methyl-1,1a,6,6a-tetrahydrocyclopropa[b]pyrrolizine-3-carboxamide]"
9,1.9,"Cc1c(C(=O)C(=O)NC2(C(=O)N(C)C)CC(F)(F)C2)c2n(c1C(=O)Nc1ccc(F)c(F)c1)CCC2 [Example 125, N-(3,4-difluorophenyl)-7-(2-((1-(dimethylcarbamoyl)-3,3-difluorocyclobutyl)amino)-2-oxoacetyl)-6-methyl-2,3-dihydro-1H-pyrrolizine-5-carboxamide]"
